Measurements from PMC11960782 (Nanoscale Advances, 2025).
Residues, ends and D or L forms follow the SMILES beside them.

What was measured:
[1] = mouse, in vivo

## CCCCCCCCCCCCCCCC(=O)N[C@H](C(=O)N[C@H](C(=O)N[C@H](C(=O)N[C@@H](C)C(=O)N[C@@H](C)C(=O)N[C@@H](C)C(=O)N[C@@H](CCCCN)C(=O)N[C@@H](CCCCN)C(=O)N[C@@H](CCCCN)C(=O)NCC(=O)NCC(=O)NCC(=O)NCC(=O)N[C@@H](CO)C(=O)N[C@@H](CC(C)C)C(=O)N[C@@H](CC(C)C)C(=O)N[C@H](C(=O)N[C@@H](CCC(=O)O)C(=O)N[C@H](C(=O)N[C@@H](CCC(=O)O)C(=O)N[C@H](C(=O)N1CCC[C@H]1C(=O)N[C@H](C(=O)N[C@@H](CCCNC(=N)N)C(=O)N[C@@H](CC(N)=O)C(=O)N[C@@H](CCC(=O)O)C(=O)N[C@@H](Cc1c[nH]c2ccccc12)C(=O)NCC(=O)N[C@@H](CO)C(=O)N[C@@H](CCCNC(=N)N)C(=O)N[C@@H](CO)C(=O)N[C@@H](CC(N)=O)C(=O)NCC(=O)N[C@@H](CO)C(=O)N[C@@H](CO)C(=O)N[C@@H](CC(=O)O)C(=O)O)[C@@H](C)CC)[C@@H](C)O)C(C)C)[C@@H](C)O)C(C)C)C(C)C)C(C)C [PA–M2e] (HELM PEPTIDE1{[CCCCCCCCCCCCCCCC(=O)[*:2]].V.V.V.A.A.A.K.K.K.G.G.G.G.S.L.L.T.E.V.E.T.P.I.R.N.E.W.G.S.R.S.N.G.S.S.D}$$$$V2.0)
DC2.4 cells
  cell viability (metabolic activity, resazurin reduction): did not significantly decrease cell viability
  live–dead cell assay by confocal microscopy: confirmed the biocompatibility
[1]
  weight loss upon immunization: none of the mice experienced weight loss
